Data from patent US11963961B2, “Combination therapy comprising an ACC inhibitor” (Gilead Sciences, Inc., priority 2017, dated 2024).
Read-outs that look alike come from different tables or passages of the source.

Legend:
[1] = test system: non-cirrhotic subjects with NASH; test: Phase 2 trial of Compound 1 in NASH: acylcarnitine species by UHPLC-MS; assay type: in vivo, human
Protocol: Methods: In this double-blind, placebo-controlled trial, 126 non-cirrhotic subjects with NASH diagnosed noninvasively by MRI proton density fat fraction (PDFF) ≥8% and liver stiffness ≥2.5 kPa by MR elastography (MRE), or historical liver biopsy consistent with NASH and stage 1 to 3 fibrosis, were randomized 2:2:1 to receive Compound 1 20 mg, Compound 1 5 mg, or placebo orally QD for 12 weeks ([…]). Centrally-read MRI-PDFF and MRE, and FibroScan and serum markers of fibrosis were measured at baseline and […]. In some subjects, liver stiffness and hepatic fat content by Controlled Attenuation Parameter (CAP) were assessed using transient elastography (FibroScan®; Echosens, Paris, France) at baseline (i.e. week 0) and week 12. Acylcarnitine species measurements were performed with Ultrahigh Performance Liquid Chromatography-Tandem Mass Spectroscopy (UHPLC-MS; Waters Acquity UHPLC, Waters Corporation, Milford, MA USA) and Hybrid Quadrupole-Orbitrap mass spectometer (Q-Exactive Thermo Fischer Scientific, Waltham, MA, USA) platforms in electrospray ionisation-positive and -negative modes as known.

[2] = test system: subjects with steatosis and F1-F3 fibrosis / NASH; conditions: Compound 1 20 mg; for ≥30% reduction in MRI-PDFF, % of subjects: 12 weeks
Protocol: Ten subjects with steatosis (MRI-PDFF≥10%) and F1-F3 fibrosis (MRE≥2.88 kPa but non-cirrhotic based on FibroText <0.75, historical imaging and liver biopsy) were treated 20 mg Compound 1 for 12 weeks.
Four of the ten subjects were on fish oil or fenofibrate at baseline and continued the concomitant medication for the duration of the study. Throughout the study subjects were monitored for safety (adverse events, laboratory abnormalities), liver biochemistry, serum markers of fibrosis (ELF and its components TIMP-1, hyaluronic acid, PIII-NP) and cell death (CK18 M30 and M65), liver stiffness (MRE) and fat (MRI-PDFF) and the effect on de novo lipogensis was assessed using heavy water labeling.
The four subjects were analyzed in conjunction with eight subjects from the study described in Example 1. These twelve subjects were on fish oil or fibrates for at least six weeks of the study and included those who were on fish oil or fibrates at baseline or who had graded hypertriglyceridemia and were given fish oil or fibrates during the study.

[3] = Compound 1 5 mg, PDFF Nonresponders
[4] = Compound 1 5 mg, PDFF Responders
[5] = Compound 1 20 mg, PDFF Nonresponders
[6] = Compound 1 20 mg, PDFF Responders
[7] = split by fibrate/fish oil for > 6 weeks: without n = 47, with n = 12

SMILES: COc1ccccc1[C@H](Cn1c(=O)n(C(C)(C)C(=O)O)c(=O)c2c(C)c(-c3ncco3)sc21)OC1CCOCC1 [Compound 1, (R)-2-(1-(2-(2-methoxyphenyl)-2-((tetrahydro-2H-pyran-4-yl)oxy)ethyl)-5-methyl-6-(oxazol-2-yl)-2,4-dioxo-1,2-dihydrothieno[2,3-d]pyrimidin-3(4H)-yl)-2-methylpropanoic acid]
- Acylcarnitine species compared according to PDFF response ([1]; Compound 1 5 mg): minimal changes
- 3-hydroxybutyrylcarnitine (1), median % change from baseline [1, 3]: −4.08%
- 5-dodecenoylcarnitine (C12:1), median % change from baseline [1, 3]: 15.43%
- laurylcarnitine (C12), median % change from baseline [1, 3]: 15.23%
- linolenoylcarnitine (C18:3), median % change from baseline [1, 3]: −23.55%
- myristoleoylcarnitine (C14:1), median % change from baseline [1, 3]: 25.74%
- myristoylcarnitine (C14), median % change from baseline [1, 3]: 12.05%
- octadecenedioylcarnitine (C18:1-DC), median % change from baseline [1, 3]: 0%
- palmitoleoylcarnitine (C16:1), median % change from baseline [1, 3]: 18.13%
- 3-hydroxybutyrylcarnitine (1), median % change from baseline [1, 4]: −18.06%
- 5-dodecenoylcarnitine (C12:1), median % change from baseline [1, 4]: 2.08%
- laurylcarnitine (C12), median % change from baseline [1, 4]: 1.99%
- linolenoylcarnitine (C18:3), median % change from baseline [1, 4]: 6.49%
- myristoleoylcarnitine (C14:1), median % change from baseline [1, 4]: −4.71%
- myristoylcarnitine (C14), median % change from baseline [1, 4]: −7.50%
- octadecenedioylcarnitine (C18:1-DC), median % change from baseline [1, 4]: 33.24%
- palmitoleoylcarnitine (C16:1), median % change from baseline [1, 4]: −0.06%
- 3-hydroxybutyrylcarnitine (1), median % change from baseline [1, 5]: 34.27%
- 5-dodecenoylcarnitine (C12:1), median % change from baseline [1, 5]: 58.85%
- laurylcarnitine (C12), median % change from baseline [1, 5]: 36.72%
- linolenoylcarnitine (C18:3), median % change from baseline [1, 5]: 20.43%
- myristoleoylcarnitine (C14:1), median % change from baseline [1, 5]: 22.42%
- myristoylcarnitine (C14), median % change from baseline [1, 5]: 23.92%
- octadecenedioylcarnitine (C18:1-DC), median % change from baseline [1, 5]: 36.38%
- palmitoleoylcarnitine (C16:1), median % change from baseline [1, 5]: 31.63%
- 3-hydroxybutyrylcarnitine (1), median % change from baseline [1, 6]: −13.99%
- 5-dodecenoylcarnitine (C12:1), median % change from baseline [1, 6]: −12.39%
- laurylcarnitine (C12), median % change from baseline [1, 6]: −3.23%
- linolenoylcarnitine (C18:3), median % change from baseline [1, 6]: −17.84%
- myristoleoylcarnitine (C14:1), median % change from baseline [1, 6]: −7.22%
- myristoylcarnitine (C14), median % change from baseline [1, 6]: −19.99%
- octadecenedioylcarnitine (C18:1-DC), median % change from baseline [1, 6]: −11.01%
- palmitoleoylcarnitine (C16:1), median % change from baseline [1, 6]: −9.82%
- Multiple long and medium-chain acylcarnitine species, PDFF response versus no PDFF response ([1]; Compound 1 20 mg, before administration of the next daily dose): significantly reduced
- ≥30% reduction in MRI-PDFF, % of subjects ([2]; all subjects (n = 59)): 49%
- ≥30% reduction in MRI-PDFF, % of subjects [2, 7]: 43%
- ALT, median relative change over 12 weeks ([2]; all subjects (n = 59)): −21.9%
- ELF, median relative change over 12 weeks ([2]; all subjects (n = 59)): −0.8%
- Fasting Glucose, median relative change over 12 weeks ([2]; all subjects (n = 59)): −2.0%
- Hemoglobin A1c, median relative change over 12 weeks ([2]; all subjects (n = 59)): −1.4%
- Hyaluronic acid, median relative change over 12 weeks ([2]; all subjects (n = 59)): −5.9%
- MRE, median relative change over 12 weeks ([2]; all subjects (n = 59)): −6.6%
- MRI-PDFF, median relative change over 12 weeks ([2]; all subjects (n = 59)): −31.0%
- PIII-NP, median relative change over 12 weeks ([2]; all subjects (n = 59)): −13.9%
- TIMP-1, median relative change over 12 weeks ([2]; all subjects (n = 59)): −8.8%
- FibroScan, median relative change over 12 weeks ([2]; all subjects, only Phase 2 study of Example 1): −11.1%
- ALT, median relative change over 12 weeks [2, 7]: −19.4%
- ELF, median relative change over 12 weeks [2, 7]: −0.35%
- Fasting Glucose, median relative change over 12 weeks [2, 7]: −1.9%
- Hemoglobin A1c, median relative change over 12 weeks [2, 7]: −1.4%
- Hyaluronic acid, median relative change over 12 weeks [2, 7]: −4.5%
- MRE, median relative change over 12 weeks [2, 7]: −3.2%
- MRI-PDFF, median relative change over 12 weeks [2, 7]: −27.9%
- PIII-NP, median relative change over 12 weeks [2, 7]: −13.9%
- TIMP-1, median relative change over 12 weeks [2, 7]: −7.85%
- FibroScan, median relative change over 12 weeks ([2]; split by fibrate/fish oil for > 6 weeks, only Phase 2 study of Example 1, n = 6 with fibrate/fish oil): −9.8%
